# Data taken from paper PMC8591608, “DNDI-6148: A Novel Benzoxaborole Preclinical Candidate for the Treatment of Visceral Leishmaniasis” (Journal of Medicinal Chemistry, 2021).
# Assays:
# [1] = system: panel of 88 targets (Cerep panel); test: Off-target panel (Eurofins Cerep panel); conditions: at a concentration of 10 μM
# [2] = system: Salmonella typhimurium strains (TA98 and TA100); test: Mini-Ames reverse mutation screen; type: cell-based; conditions: TA98 and TA100, with and without metabolic activation, 1.5 to 1000 μg/well
# Procedure: Mini-Ames reverse mutation screens were conducted by WuXi AppTec, Co., China. Two Salmonella typhimurium strains (TA98 and TA100) were employed, both in the presence and absence of metabolic activation (induced rat liver S9). Test compounds were assessed at doses of 1.5, 4, 10, 25, 64, 160, 400, and 1000 μg per well, 2-aminoanthracene, 2-nitrofluorene, and sodium azide were used as positive controls, and the negative control was DMSO.
# hERG potassium channels = target: T1, hERG potassium channels (Homo sapiens, UniProt Q12809); test: hERG inhibition, automated patch-clamp; type: cell-based; conditions: at 30 μM
# T1 construct: expressed in transfected cells; host or cells: Chinese hamster ovary (CHO) cells
# Procedure: An automated patch-clamp method (QPatch HTX) was used by WuXi AppTec, China. Chinese hamster ovary cells expressing hERG potassium channels were incubated at room temperature with test compounds (0.12, 0.37, 1.11, 3.33, 10, and 30 μM, in triplicate) or amitriptyline as a positive control.
# T1 sequence (Q12809 whole entry): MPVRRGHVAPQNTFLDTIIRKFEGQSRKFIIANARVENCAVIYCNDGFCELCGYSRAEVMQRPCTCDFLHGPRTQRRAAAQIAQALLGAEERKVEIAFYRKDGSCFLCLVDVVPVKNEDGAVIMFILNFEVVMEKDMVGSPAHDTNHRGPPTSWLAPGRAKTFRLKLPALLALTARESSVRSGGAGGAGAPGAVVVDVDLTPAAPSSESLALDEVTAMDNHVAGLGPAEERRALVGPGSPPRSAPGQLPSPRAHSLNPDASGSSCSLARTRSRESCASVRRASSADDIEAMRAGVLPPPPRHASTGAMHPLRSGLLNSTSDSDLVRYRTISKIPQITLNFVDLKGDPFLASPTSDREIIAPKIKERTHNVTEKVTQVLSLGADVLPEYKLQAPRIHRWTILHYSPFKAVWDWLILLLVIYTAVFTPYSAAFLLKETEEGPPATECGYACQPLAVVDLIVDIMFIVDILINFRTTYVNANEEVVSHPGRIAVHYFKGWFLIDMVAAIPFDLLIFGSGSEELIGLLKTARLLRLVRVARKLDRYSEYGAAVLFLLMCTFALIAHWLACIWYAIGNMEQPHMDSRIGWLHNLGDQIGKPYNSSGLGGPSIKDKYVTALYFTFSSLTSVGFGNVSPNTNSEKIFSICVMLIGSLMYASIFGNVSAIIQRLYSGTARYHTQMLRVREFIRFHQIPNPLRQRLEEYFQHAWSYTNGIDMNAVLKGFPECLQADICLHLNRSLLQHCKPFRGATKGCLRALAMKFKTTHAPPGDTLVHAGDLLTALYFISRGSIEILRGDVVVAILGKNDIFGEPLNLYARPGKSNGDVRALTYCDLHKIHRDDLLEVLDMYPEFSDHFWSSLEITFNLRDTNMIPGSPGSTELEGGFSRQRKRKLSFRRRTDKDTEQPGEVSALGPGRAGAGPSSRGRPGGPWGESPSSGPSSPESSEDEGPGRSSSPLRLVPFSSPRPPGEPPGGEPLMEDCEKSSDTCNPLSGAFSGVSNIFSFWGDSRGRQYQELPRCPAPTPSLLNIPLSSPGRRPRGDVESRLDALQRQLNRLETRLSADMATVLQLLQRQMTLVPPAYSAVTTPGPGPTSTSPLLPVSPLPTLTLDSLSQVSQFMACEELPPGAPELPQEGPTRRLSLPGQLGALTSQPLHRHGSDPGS
smiles,measurement,setting,value
"Cc1c(C(=O)Nc2ccc3c(c2)B(O)OC3)nnn1-c1ccccn1 [Compound 23, N-(1-Hydroxy-1,3-dihydrobenzo[c][1,2]oxaborol-6-yl)-5-methyl-1-(pyridin-2-yl)-1H-1,2,3-triazole-4-carboxamide]",activity in panel of 88 targets,[1],≤ 50%
same,Ames assay result,[2],negative
same,hERG inhibition,hERG potassium channels,< 20%
